Where “and” joins values, the source holds several entries; their conditions need not be identical. Equal values may be shown once. Read-outs that look alike come from different tables or passages of the source.
What was measured:
JB6 Cl41 cells [1] = assay: Soft agar assay, EGF-induced neoplastic cell transformation; type: cell-based, mouse; settings: compound 0.1 µM, EGF 1 ng/mL, soft agar, 2 weeks, vs positive control; for inhibition at 0.1 µM: Mus musculus, JB6 Cl41, 336 h, read-out: inhibition of EGF-induced neoplastic transformation of JB6 Cl41 cells
Procedure: (§1) JB6 Cl41 cells (2.4 × 10^4) were exposed to epidermal growth factor (EGF) (1 ng/mL) or phorbol 12-myristate 13-acetate (TPA) (10 ng/mL) and treated either with DMSO (control) or the triterpene glycosides 1–9 from S. pacificus (0.1, 0.5, and 1 µM) in 1 mL of 0.3% basal medium Eagle (BME) agar containing 10% FBS, 2 mM L-glutamine, and 25 µg/mL gentamicin (agar mix). The cultures were maintained in a humidified atmosphere with 5% CO2 at 37 °C for 14 days, and the cell’s colonies were scored using a microscope, Motic AE 20 (XiangAn, Xiamen, China), and the ImageJ software bundled with 64-bit Java 1.8.0_112 (NIH, Bethesda, MD, USA). To determine the effect of investigated compounds on neoplastic cell transformation induced by ionizing radiation (X-ray or UVB), JB6 Cl41 cells (3 × 10^5/dish) were seeded in 60 mm dishes and cultured for 24 h at 37 °C in 5% CO2 incubator. Then, the cells were exposed to X-rays (X-ray system XPERT 80 (KUB Technologies, Inc, Milford, CT, USA)) at dose of 0.5 Gy or UVB (wavelengths below 312 nm) (Bio-Link UV irradiation system, Vilber, France) at dose of 0.3 J/cm^2 three times a week for 3 weeks. Irradiated JB6 Cl41 cells (2.4 × 10^4) were treated either with DMSO (control) or the triterpene glycosides 1–9 from S. pacificus (0.1, 0.5, and 1 µM) in 1 mL of agar mix. The cultures were maintained in a humidified atmosphere with 5% CO2 at 37 °C for 14 days, and the cell’s colonies were scored using a microscope, Motic AE 20 (XiangAn, Xiamen 361101, China), and the ImageJ software bundled with 64-bit Java 1.8.0_112 (NIH, Bethesda, MD, USA).

[2] = tested on: non-cancerous mouse epidermal cells JB6 Cl41; assay: Cell viability, MTS assay, JB6 Cl41; type: cell-based; settings: Mus musculus, JB6 Cl41, 24 h
Procedure: (§2) MTS assay was used to measure the cell viability of tested normal and cancer cells. Cells were seeded into 96-well plates (“Jet Biofil”, Guangzhou, China) at density of 1.0 × 10^4/200 µL for 24 h at 37 °C in a 5% CO2 incubator. Then, cell monolayer was treated either with DMSO (control) or various concentrations of the triterpene glycosides 1–9 from S. pacificus (0.1, 0.5, 2.5, 12.5, 62.5 µM) in fresh appropriate culture medium for 24 h. Subsequently, the cells were incubated with 15 µL of 3-(4,5-dimethylthiazol-2-yl)-5-(3-carboxymethoxyphenyl)-2-(4-sulfophenyl)-2H-tetrazolium (MTS reagent) (“Promega”, Madison, WI, USA) for 3 h, and the absorbance of each well was measured at 490/630 nm using Power Wave XS microplate reader (“BioTek”, Wynusky, VT, USA). The concentration at which the compounds exert half of their maximal inhibitory effect on cell viability (IC50) was calculated by the AAT-Bioquest® online calculator [39]. The selectivity index (SI) was calculated as described previously using the following formula SI = IC50 of the compounds in normal cell (JB6 Cl41)/IC50 of the same compounds in human melanoma cell lines (SK-MEL-2, SK-MEL-28, or RPMI-7951).

[3] = tested on: human melanoma cells SK-MEL-28; assay: Cell viability, MTS assay, SK-MEL-28; type: cell-based; settings: for IC50: Homo sapiens, SK-MEL-28, 24 h; for SI (selectivity index) SK-MEL-28: IC50 JB6 Cl41 / IC50 SK-MEL-28
Procedure: as §2

[4] = tested on: Human erythrocytes (O(I)+); assay: Hemolysis assay; type: cell-based; settings: 1 h, 37 °C, PBS pH 7.4
Procedure: Human erythrocytes (O(I)+) were obtained from Vladivostok blood transfusion station. Erythrocytes were centrifuged with PBS (pH 7.4) for 5 min at 4 °C by 450× g on a LABOFUGE 400R (Heraeus, Hanau, Germany) centrifuge three times. Then, the residue of erythrocytes was resuspended in ice-cold PBS (pH 7.4) to a final optical density of 2.0 at 700 nm and kept on ice. For the hemolytic assay, 180 µL of erythrocyte suspension was mixed with 20 µL of Cucumarioside A2-2 (positive control) and investigated compounds at concentrations range of 0.1, 0.5, 1, 5, 10 µM in V-bottom 96-well plates. After 1 h of incubation at 37 °C, plates were centrifuged at 900× g for 10 min on an LMC-3000 (Biosan, Riga, Latvia) laboratory centrifuge. Then, we carefully selected 100 µL of supernatant and transferred it to new flat plates, respectively. Lysis of erythrocytes was determined by measuring the concentration of hemoglobin in the supernatant with a microplate photometer Multiskan FC (Thermo Fisher Scientific, Waltham, MA, USA) at 570 nm. The effective dose causing 50% of erythrocytes hemolysis (ED50) was calculated using the computer program SigmaPlot 10.0. All experiments were made in triplicate, p < 0.01.

JB6 Cl41 cells [5] = assay: Soft agar assay, UVB-induced neoplastic cell transformation; type: cell-based, mouse; settings: for inhibition at 0.1 µM: Mus musculus, JB6 Cl41, light or radiation study, 504 h
Procedure: as §1

[6] = tested on: human melanoma cells SK-MEL-2; assay: Cell viability, MTS assay, SK-MEL-2; type: cell-based; settings: for SI (selectivity index) SK-MEL-2: IC50 JB6 Cl41 / IC50 SK-MEL-2
Procedure: as §2

SK-MEL-2 cells = assay: Soft agar assay, colony formation of cancer cells; type: cell-based, human; settings: compound 0.1 µM, 14 days
Procedure: SK-MEL-2 cells (2.4 × 10^4) were treated either with DMSO (control) or the triterpene glycosides 1–9 from S. pacificus (0.1 µM) in 1 mL of agar mix. After 14 days, colonies of cancer cells were scored as described above.

JB6 Cl41 cells [7] = assay: Soft agar assay, TPA-induced neoplastic cell transformation; type: cell-based, mouse; settings: compound 0.1 µM, TPA 10 ng/mL, soft agar, 2 weeks, vs positive control; for inhibition at 0.1 µM: Mus musculus, JB6 Cl41, 336 h, read-out: inhibition of TPA-induced neoplastic transformation of JB6 Cl41 cells
Procedure: as §1

JB6 Cl41 cells [8] = assay: Soft agar assay, X-ray-induced neoplastic cell transformation; type: cell-based, mouse; settings: Mus musculus, JB6 Cl41, 504 h
Procedure: as §1

[9] = tested on: human melanoma cells RPMI-7951; assay: Cell viability, MTS assay, RPMI-7951; type: cell-based; settings: for IC50: Homo sapiens, RPMI-7951, 24 h; for SI (selectivity index) RPMI-7951: IC50 JB6 Cl41 / IC50 RPMI-7951
Procedure: as §2

[10] = MTS assay, 24 h, normal cells, read-out: IC50, cell viability JB6 Cl41
[11] = MTS assay, 24 h, read-out: IC50, cell viability SK-MEL-28
[12] = Homo sapiens, SK-MEL-2, 24 h, MTS assay, 24 h, read-out: IC50, cell viability SK-MEL-2
[13] = compound 0.1 µM, X-rays 0.5 Gy three times a week for 3 weeks, soft agar, read-out: inhibition of X-ray-induced cell transformation (JB6 Cl41 colonies formation)
[14] = MTS assay, 24 h, read-out: IC50, cell viability RPMI-7951

Row | SMILES | SI (selectivity index) SK-MEL-28 [3] | ED50, effective dose causing 50% of erythrocytes hemolysis [4] | SI (selectivity index) SK-MEL-2 [6] | decrease of colonies number of SK-MEL-2 cells (colony formation) (SK-MEL-2 cells) | SI (selectivity index) RPMI-7951 [9] | inhibition at 0.1 µM (JB6 Cl41 cells [1]) | IC50 [2, 10] | IC50 [3, 11] | IC50 [6, 12] | inhibition at 0.1 µM (JB6 Cl41 cells [7]) | inhibition at 0.1 µM (JB6 Cl41 cells [8]; [13]) | IC50 [9, 14] | also measured
1 | COC1C(O)COC(OC2C(O)C(COS(=O)(=O)O)OC(OC3C(C)OC(OC4C(OC5CCC6(C)C7CCC89C(=O)OC(C)(C=CC=C(C)C)C8C(OC(C)=O)CC9(C)C7=CCC6C5(C)C)OCC(O)C4O)C(O)C3O)C2O)C1O [Compound 3, 3β-O-{3-O-methyl-β-D-xylopyranosyl-(1→3)-6-sulfoxy-β-D-glucopyranosyl-(1→4)-β-D-quinovopyranosyl-(1→2)-β-D-xylopyranosyl}-16β-acetoxyholosta-7,22E,24-triene] | 0.4 | 0.72 µM and 0.72 ± 0.05 µM | 8.8 | 34% | 0.22 | – | – | – | – | – | – | – | inhibition of EGF-induced neoplastic transformation of JB6 Cl41 cells (JB6 Cl41 cells [1]; 0.1 µM): 70%; IC50 ([2]; read-out: IC50, cell viability JB6 Cl41, MTS assay, 24 h, normal cells): 6 ± 0.1 µM; IC50 ([3]; read-out: IC50, cell viability SK-MEL-28, MTS assay, 24 h): 14.8 ± 0.03 µM; inhibition at 0.1 µM (JB6 Cl41 cells [5]; read-out: inhibition of UVB-induced neoplastic cell transformation (decrease of colonies number), compound 0.1 µM, UVB 0.3 J/cm^2 three times a week for 3 weeks, soft agar): 13%; IC50 ([6]; Homo sapiens, SK-MEL-2, 24 h, read-out: IC50, cell viability SK-MEL-2, MTS assay, 24 h): < 1 µM; IC50 ([6]; read-out: IC50, cell viability SK-MEL-2, MTS assay, 24 h): 0.68 ± 0.06 µM; inhibition of TPA-induced neoplastic transformation of JB6 Cl41 cells (JB6 Cl41 cells [7]; 0.1 µM): 36%; inhibition at 0.1 µM (JB6 Cl41 cells [8]; read-out: inhibition of X-ray-induced cell transformation (JB6 Cl41 colonies formation), compound 0.1 µM, X-rays 0.5 Gy three times a week for 3 weeks, soft agar): 26%; IC50 ([9]; read-out: IC50, cell viability RPMI-7951, MTS assay, 24 h): 27.9 ± 0.09 µM
2 | C=C(C)C1C2CC3(C)C4=CCC5C(C)(C)C(OC6OCC(O)C(O)C6OC6OC(C)C(OC7OC(CO)C(O)C(O)C7O)C(O)C6OC6OCC(O)C(O)C6O)CCC5(C)C4CCC13C(=O)O2 [Compound 8, 3β-O-{β-D-glucopyranosyl-(1→4)-[β-D-xylopyranosyl-(1→2)]-β-D-quinovopyranosyl-(1→2)-β-D-xylopyranosyl}-23,24,25,26,27-pentanor-5α-lanosta-7,20(22)-diene-18(16)-lactone] | 0.8 | 6.16 ± 0.05 µM | – | 3% | – | 10% | 32.8 ± 2.8 µM | 42 ± 0.4 µM | > 50 µM | 20% | < 15% | > 50 µM | inhibition of UVB-induced neoplastic cell transformation (decrease of colonies number) (JB6 Cl41 cells [5]; compound 0.1 µM, UVB 0.3 J/cm^2 three times a week for 3 weeks, soft agar): not effective
3 | C=C(C)C1C2CC3(C)C4=CCC5C(C)(C)C(OC6OCC(O)C(O)C6OC6OC(C)C(OC7OC(COS(=O)(=O)O)C(O)C(OC8OCC(O)C(OC)C8O)C7O)C(O)C6O)CCC5(C)C4CCC13C(=O)O2 [Compound 9, 3β-O-{3-O-methyl-β-D-xylopyranosyl-(1→3)-6-O-6-sulfoxy-β-D-glucopyranosyl-(1→4)-β-D-quinovopyranosyl-(1→2)-β-D-xylopyranosyl}-23,24,25,26,27-pentanor-5α-lanosta-7,20(22)-diene-18(16)-lactone] | 0.32 | 2.85 ± 0.14 µM | 9.9 | – | 0.23 | 34% | 7.4 ± 0.8 µM | 23.3 ± 0.6 µM | < 1 µM | 42% | 28% | 32.4 ± 0.08 µM | inhibition at 0.1 µM (JB6 Cl41 cells [5]; compound 0.1 µM, UVB 0.3 J/cm^2 three times a week for 3 weeks, soft agar, read-out: inhibition of UVB-induced neoplastic cell transformation (decrease of colonies number)): 11%; IC50 ([6]; MTS assay, 24 h, read-out: IC50, cell viability SK-MEL-2): 0.75 ± 0.03 µM
4 | C=C(C)CCCC1(C)OC(=O)C23CCC4C(=CCC5C(C)(C)C(OC6OCC(OS(=O)(=O)[O-])C(O)C6OC6OC(C)C(OC7OC(CO)C(O)C(OC8OC(CO)C(O)C(OC)C8O)C7O)C(O)C6OC6OCC(O)C(O)C6O)CCC45C)C2(C)CC(=O)C13.[Na+] (stereo not drawn) [Cucumarioside A2-2, reference compound] | – | 0.95 ± 0.04 µM | – | – | – | – | – | – | – | – | – | – | –
